Measured values: patent publication US20240336654A1, “ANTIMICROBIAL PEPTIDOMIMETICS” (SPEXIS AG, priority 2021, published 2024)
Where a SMILES comes first, the peptide text is derived from it. Bridges are numbered along the chain shown (N, C = ends). [ ]: non-standard residue; d: D form. The star is where a group is joined. Val(Nα-amidino) = CC(C)[C@H](NC(=N)N)C(=O)*; dDab(iPr) = CC(C)NCC[C@@H](N)C(=O)O; Hyp = O=C(O)[C@@H]1C[C@@H](O)CN1; Cit = NC(=O)NCCC[C@H](N)C(=O)O; Pen = CC(C)(S)[C@H](N)C(=O)O; dDab = NCC[C@@H](N)C(=O)O; Orn = NCCC[C@H](N)C(=O)O; Dab = NCC[C@H](N)C(=O)O

Assays:
Assay type in all cases: cell-based
[1] = system: Escherichia coli ATCC 25922; conditions: ATCC 25922
Summary of the method: (§1)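 The MIC is the lowest peptide concentration, in μg/mL, with no visible growth after 18-20 h incubation at 35 °C. Serial two-fold peptide dilutions in water with 0.002% P-80 final were added to bacteria in cation-adjusted MHII broth, about 5×10^5 CFU/mL, following modified CLSI microdilution.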

[2] = system: Escherichia coli MCR-1 Af 45; conditions: MCR-1 Af 45
Summary of the method: as §1

[3] = system: Klebsiella pneumoniae SSI3010; conditions: SSI3010
Summary of the method: as §1

[4] = system: human red blood cells (hRBC); conditions: red cells of human, 1 h, 200 μg/mL
Summary of the method: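 Percent hemolysis derived from OD540 of supernatants relative to full lysis by 2.5% Triton X-100 (PBS baseline). Washed fresh human erythrocytes (20% v/v) were exposed to 200 μg/mL peptide for 1 h at 37 °C with shaking.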

Row | Structure (SMILES) | Escherichia coli ATCC 25922 MIC [1] | Escherichia coli MCR-1 Af45 MIC [2] | Klebsiella pneumoniae SSI3010 MIC [3] | Hemolysis at 0.2 g/L [4]
1 | CC[C@H](C)[C@H](NC(=O)[C@@H]1C[C@@H](O)CN1C(=O)[C@@H](NC(=N)N)C(C)C)C(=O)N[C@@H]1C(=O)N[C@@H](Cc2ccc(O)cc2)C(=O)N[C@@H](CO)C(=O)N[C@@H](CC(N)=O)C(=O)N[C@@H](CCCNC(=N)N)C(=O)N[C@@H](CCN)C(=O)N[C@@H](CC(N)=O)C(=O)N[C@H](CCN)C(=O)N[C@@H](CCCCN)C(=O)N[C@@H](CCN)C(=O)N[C@@H](CCN)C(=O)N[C@H](C(=O)N[C@@H](Cc2ccc(O)cc2)C(=O)O)CSSC1(C)C [Example 94, Gua-Val-Hyp-Ile-Pen-Tyr-Ser-Asn-Arg-Dab-Asn-^DDab-Lys-Dab-Dab-Cys-Tyr] ({Val(Nα-amidino)}-[Hyp]I[Pen]YSNR[Dab]N[dDab]K[Dab][Dab]CY-OH; disulfide 3-14) | 0.25 µg/mL | 0.125 µg/mL | 0.25 µg/mL | <1%
2 | CC[C@H](C)[C@H](NC(=O)[C@@H]1C[C@@H](O)CN1C(=O)[C@@H](NC(=N)N)C(C)C)C(=O)N[C@@H]1C(=O)N[C@@H](Cc2ccc(O)cc2)C(=O)N[C@@H]([C@@H](C)O)C(=O)N[C@@H](CC(N)=O)C(=O)N[C@@H](CCCNC(=N)N)C(=O)N[C@@H](CCN)C(=O)N[C@@H]([C@@H](C)O)C(=O)N[C@H](CCNC(C)C)C(=O)N[C@@H](CCCCN)C(=O)N[C@@H](CCN)C(=O)N[C@@H](CCN)C(=O)N[C@H](C(=O)N[C@@H](Cc2ccc(O)cc2)C(=O)O)CSSC1(C)C [Example 95, Gua-Val-Hyp-Ile-Pen-Tyr-Thr-Asn-Arg-Dab-Thr-^DDab(iPr)-Lys-Dab-Dab-Cys-Tyr] ({Val(Nα-amidino)}-[Hyp]I[Pen]YTNR[Dab]T[dDab(iPr)]K[Dab][Dab]CY-OH; disulfide 3-14) | 0.125 µg/mL | 0.125 µg/mL | 0.25 µg/mL | <1%
3 | CC[C@H](C)[C@H](NC(=O)[C@@H]1C[C@@H](O)CN1C(=O)[C@@H](NC(=N)N)C(C)C)C(=O)N[C@@H]1C(=O)N[C@@H](Cc2ccc(O)cc2)C(=O)N[C@@H]([C@@H](C)O)C(=O)N[C@@H](CC(N)=O)C(=O)N[C@@H](CCCNC(=N)N)C(=O)N[C@@H](CCN)C(=O)N[C@@H]([C@@H](C)O)C(=O)N[C@H](CCNC(C)C)C(=O)N[C@@H](CO)C(=O)N[C@@H](CCN)C(=O)N[C@@H](CCN)C(=O)N[C@H](C(=O)N[C@@H](Cc2ccc(O)cc2)C(=O)O)CSSC1(C)C [Example 96, Gua-Val-Hyp-Ile-Pen-Tyr-Thr-Asn-Arg-Dab-Thr-^DDab(iPr)-Ser-Dab-Dab-Cys-Tyr] ({Val(Nα-amidino)}-[Hyp]I[Pen]YTNR[Dab]T[dDab(iPr)]S[Dab][Dab]CY-OH; disulfide 3-14) | 0.125 µg/mL | 0.125 µg/mL | 0.25 µg/mL | <1%
4 | CC[C@H](C)[C@H](NC(=O)[C@@H]1C[C@@H](O)CN1C(=O)[C@@H](NC(=N)N)C(C)C)C(=O)N[C@@H]1C(=O)N[C@@H](Cc2ccc(O)cc2)C(=O)N[C@@H]([C@@H](C)O)C(=O)N[C@@H](CC(N)=O)C(=O)N[C@@H](CCCNC(=N)N)C(=O)N[C@@H](CCN)C(=O)N[C@@H]([C@@H](C)O)C(=O)N[C@H](CCN)C(=O)N[C@@H](CCCNC(N)=O)C(=O)N[C@@H](CCN)C(=O)N[C@@H](CCN)C(=O)N[C@H](C(=O)N[C@@H](Cc2ccc(O)cc2)C(=O)O)CSSC1(C)C [Example 97, Gua-Val-Hyp-Ile-Pen-Tyr-Thr-Asn-Arg-Dab-Thr-^DDab-Cit-Dab-Dab-Cys-Tyr] ({Val(Nα-amidino)}-[Hyp]I[Pen]YTNR[Dab]T[dDab][Cit][Dab][Dab]CY-OH; disulfide 3-14) | 0.125 µg/mL | 0.125 µg/mL | 0.25 µg/mL | <1%
5 | CC[C@H](C)[C@H](NC(=O)[C@@H]1C[C@@H](O)CN1C(=O)[C@@H](NC(=N)N)C(C)C)C(=O)N[C@@H]1C(=O)N[C@@H](Cc2ccc(O)cc2)C(=O)N[C@@H]([C@@H](C)O)C(=O)N[C@@H](CC(N)=O)C(=O)N[C@@H](CCCNC(=N)N)C(=O)N[C@@H](CCN)C(=O)N[C@@H]([C@@H](C)O)C(=O)N[C@H](CCN)C(=O)N[C@@H](CCCCN)C(=O)N[C@@H](CCN)C(=O)N[C@@H](CCCNC(N)=O)C(=O)N[C@H](C(=O)N[C@@H](Cc2ccc(O)cc2)C(=O)O)CSSC1(C)C [Example 98, Gua-Val-Hyp-Ile-Pen-Tyr-Thr-Asn-Arg-Dab-Thr-^DDab-Lys-Dab-Cit-Cys-Tyr] ({Val(Nα-amidino)}-[Hyp]I[Pen]YTNR[Dab]T[dDab]K[Dab][Cit]CY-OH; disulfide 3-14) | 0.25 µg/mL | 0.125 µg/mL | 0.5 µg/mL | <1%
6 | CC[C@H](C)[C@H](NC(=O)[C@@H]1C[C@@H](O)CN1C(=O)[C@@H](NC(=N)N)C(C)C)C(=O)N[C@@H]1C(=O)N[C@@H](Cc2ccc(O)cc2)C(=O)N[C@@H](CO)C(=O)N[C@@H](CC(N)=O)C(=O)N[C@@H](CCCNC(=N)N)C(=O)N[C@@H](CCN)C(=O)N[C@@H]([C@@H](C)O)C(=O)N[C@H](CCN)C(=O)N[C@@H](CO)C(=O)N[C@@H](CCN)C(=O)N[C@@H](CCN)C(=O)N[C@H](C(=O)N[C@@H](Cc2ccc(O)cc2)C(=O)O)CSSC1(C)C [Example 99, Gua-Val-Hyp-Ile-Pen-Tyr-Ser-Asn-Arg-Dab-Thr-^DDab-Ser-Dab-Dab-Cys-Tyr] ({Val(Nα-amidino)}-[Hyp]I[Pen]YSNR[Dab]T[dDab]S[Dab][Dab]CY-OH; disulfide 3-14) | 0.25 µg/mL | 0.125 µg/mL | 0.25 µg/mL | <1%
7 | CC[C@H](C)[C@H](NC(=O)[C@@H]1C[C@@H](O)CN1C(=O)[C@@H](NC(=N)N)C(C)C)C(=O)N[C@@H]1C(=O)N[C@@H](Cc2ccc(O)cc2)C(=O)N[C@@H]([C@@H](C)O)C(=O)N[C@@H](CC(N)=O)C(=O)N[C@@H](CCCNC(=N)N)C(=O)N[C@@H](CCN)C(=O)N[C@@H]([C@@H](C)O)C(=O)N[C@H](CCN)C(=O)N[C@@H](CO)C(=O)N[C@@H](CCN)C(=O)N[C@@H](CCCN)C(=O)N[C@H](C(=O)N[C@@H](Cc2ccc(O)cc2)C(=O)O)CSSC1(C)C [Example 100, Gua-Val-Hyp-Ile-Pen-Tyr-Thr-Asn-Arg-Dab-Thr-^DDab-Ser-Dab-Orn-Cys-Tyr] ({Val(Nα-amidino)}-[Hyp]I[Pen]YTNR[Dab]T[dDab]S[Dab][Orn]CY-OH; disulfide 3-14) | 0.25 µg/mL | 0.25 µg/mL | 0.5 µg/mL | <1%
8 | CC[C@H](C)[C@H](NC(=O)[C@@H]1C[C@@H](O)CN1C(=O)[C@@H](NC(=N)N)C(C)C)C(=O)N[C@@H]1C(=O)N[C@@H](Cc2ccc(O)cc2)C(=O)N[C@@H](CCN)C(=O)N[C@@H](CC(N)=O)C(=O)N[C@@H](CCCNC(=N)N)C(=O)N[C@@H](CCN)C(=O)N[C@@H]([C@@H](C)O)C(=O)N[C@H](CCN)C(=O)N[C@@H](CCCCN)C(=O)N[C@@H]([C@@H](C)O)C(=O)N[C@@H](CCN)C(=O)N[C@H](C(=O)N[C@@H](Cc2ccc(O)cc2)C(=O)O)CSSC1(C)C [Example 101, Gua-Val-Hyp-Ile-Pen-Tyr-Dab-Asn-Arg-Dab-Thr-^DDab-Lys-Thr-Dab-Cys-Tyr] ({Val(Nα-amidino)}-[Hyp]I[Pen]Y[Dab]NR[Dab]T[dDab]KT[Dab]CY-OH; disulfide 3-14) | 0.125 µg/mL | 0.125 µg/mL | 0.5 µg/mL | <1%
